Data on 26 compounds can be found in US10144737B2 (ETERNITY BIOSCIENCE INC., priority 2014, dated 2018).

The subject of one assay is TMD-8 cells. In words: Cell proliferation assay (CellTiter-Glo), TMD-8 cells. In kind it is cell-based. The settings on record: Homo sapiens, TMD8, 120 h, 5-day treatment, read-out: TMD8 cell growth (GI50 μM). The procedure:
Cell proliferation assay: TMD-8 and SU-DHL-1 cells were maintained at 37° C. in a humidified atmosphere with 5% CO2 in the recommended medium and serum concentrations. For cell proliferation assay, cells were seeded in 96-well pates at a density of 5,000 to 10,000 cells per well and cultured overnight at 37° C. in recommended medium supplemented with 5-10% FBS. On the next day, the test articles at various concentrations or vehicle control (0.5% DMSO) were added into cell culture. After 5-day treatment, the growth of cells was assayed by the CellTiter-Glo® Luminestceaent Cell Viability Assay (Promega). IC50 values were calculated using GraphPad Prism by plotting the logarithm of the concentration versus percent inhibition of cell growth as compared with the vehicle control.

The target of a further assay is T1, Btk (Homo sapiens, UniProt Q06187).
T1 construct: purchased Promega (Madison, Wis.)
T1 sequence (Q06187 whole entry): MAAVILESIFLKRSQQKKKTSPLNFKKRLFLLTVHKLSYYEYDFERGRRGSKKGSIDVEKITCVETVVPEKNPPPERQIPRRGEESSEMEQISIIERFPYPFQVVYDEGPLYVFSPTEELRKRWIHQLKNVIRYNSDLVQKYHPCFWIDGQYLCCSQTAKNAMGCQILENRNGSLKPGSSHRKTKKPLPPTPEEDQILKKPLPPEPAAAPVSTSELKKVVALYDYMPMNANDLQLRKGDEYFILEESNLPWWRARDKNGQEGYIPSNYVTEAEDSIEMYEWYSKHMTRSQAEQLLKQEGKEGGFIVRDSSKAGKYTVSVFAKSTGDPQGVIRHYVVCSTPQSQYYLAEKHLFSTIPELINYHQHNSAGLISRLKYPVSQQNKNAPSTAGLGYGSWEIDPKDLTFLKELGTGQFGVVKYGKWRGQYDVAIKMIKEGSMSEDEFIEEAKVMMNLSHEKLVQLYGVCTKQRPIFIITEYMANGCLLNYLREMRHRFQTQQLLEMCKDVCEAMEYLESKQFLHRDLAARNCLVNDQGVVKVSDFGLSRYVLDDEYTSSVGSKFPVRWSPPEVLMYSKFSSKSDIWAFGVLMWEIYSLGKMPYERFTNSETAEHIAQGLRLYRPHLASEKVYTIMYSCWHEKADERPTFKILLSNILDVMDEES
Nature of the assay: Btk kinase assay (ADP-Glo). In kind it is biochemical. As to conditions: ADP-Glo Btk kinase assay kit; ATP 1.2 μM; 60 minutes at room temperature. On the procedure:
Btk kinase assay—The Btk kinase assay was performed using a ADP-Glo Btk kinase assay kit purchased from Promega (Madison, Wis.). The assay was conducted according to the protocols provided in the assay kit. In brief, the enzyme reaction was carried out in the kinase reaction buffer containing Btk (2 ng/μl), ATP (1.2 μM), poly GT peptide (0.3 μM), DTT (40 nM), MnCl2 (1.4 mM), and 1 xkinase buffer (included in the kit) in the presence or absence of the tested articles at various concentrations in 384-well plate at room temperature (22±1° C.) for 60 minutes. The final reaction volume for each reaction was 10 μl. Then, 4 μl of ADP-Glo reagent (included in the kit) was added into the reaction and the plate was further incubated for another 40 minutes to terminate the reaction and deplete the remaining ATP. Finally, 10 μl of the kinase detection reagent was added into each reaction to simultaneously convert ADP to ATP and allow the newly synthesized ATP to be measured by a plate-reading luminometer (Victor X5 2030 multilabel reader, PerkinElmer). IC50 value was calculated using appropriate programs in GraphPad Prism by plotting the logarithm of the concentration versus percent inhibition as compared with a vehicle (DMSO) control.

As to `C=CC(=O)N1CCN(c2ncnc3[nH]c(C#CCOc4ccccc4)cc23)CC1` [Example 1, 1-(4-(6-(3-phenoxyprop-1-yn-1-yl)-7H-pyrrolo[2,3-d]pyrimidin-4-yl)piperazin-1-yl)prop-2-en-1-one], in the assay on TMD-8 cells, the concentration for 50% growth inhibition (GI50) came to 0.054 µM. For the same compound, half-maximal inhibition on Btk (IC50) was put at 109 nM.

Regarding `CN(C)C/C=C/C(=O)N1CCN(c2ncnc3[nH]c(C#CCOc4ccccc4)cc23)CC1` [Example 2, (E)-4-(dimethylamino)-1-(4-(6-(3-phenoxyprop-1-yn-1-yl)-7H-pyrrolo[2,3-d]pyrimidin-4-yl)piperazin-1-yl)but-2-en-1-one], the GI50 with TMD-8 cells turned out to be 0.034 µM. For the same compound, the concentration for half-maximal inhibition (IC50) against Btk is 3.3 nM.

On to `CNC/C=C/C(=O)N1CCN(c2ncnc3[nH]c(C#CCOc4ccccc4)cc23)CC1` [Example 3, (E)-4-(methylamino)-1-(4-(6-(3-phenoxyprop-1-yn-1-yl)-7H-pyrrolo[2,3-d]pyrimidin-4-yl)piperazin-1-yl)but-2-en-1-one], for which, in the assay with TMD-8 cells, the GI50 came to 2.9 µM. At Btk, this compound displayed a half-inhibitory concentration (IC50) of 2.3 nM.

With `C=CC(=O)N1CCN(c2ncnc3[nH]c(C#CCOCc4ccccc4)cc23)CC1` [Example 4, 1-(4-(6-(3-(benzyloxy)prop-1-yn-1-yl)-7H-pyrrolo[2,3-d]pyrimidin-4-yl)piperazin-1-yl)prop-2-en-1-one], the GI50 in the assay with TMD-8 cells is 0.157 µM. For the same compound, 60 nM corresponded to half-maximal inhibition against Btk (IC50).

In the case of `C=CC(=O)N1CCN(c2ncnc3[nH]c(C#CCOC)cc23)CC1` [Example 5, 1-(4-(6-(3-methoxyprop-1-yn-1-yl)-7H-pyrrolo[2,3-d]pyrimidin-4-yl)piperazin-1-yl)prop-2-en-1-one], in the assay on TMD-8 cells, the concentration for 50% growth inhibition (GI50) stood at 1.66 µM. The compound also came in with an IC50 against Btk of 257 nM.

`C=CC(=O)N1CCN(c2ncnc3[nH]c(C#CCOc4ccccc4)nc23)CC1` [Example 6, 1-(4-(8-(3-phenoxyprop-1-yn-1-yl)-9H-purin-6-yl)piperazin-1-yl)prop-2-en-1-one]: in the assay on TMD-8 cells, the concentration for 50% growth inhibition (GI50) stood at 0.019 µM. The compound also came in with an IC50 against Btk of 16.4 nM.

For the compound `CN(C)C/C=C/C(=O)N1CCN(c2ncnc3[nH]c(C#CCOc4ccccc4)nc23)CC1` [Example 7, (E)-4-(dimethylamino)-1-(4-(8-(3-phenoxyprop-1-yn-1-yl)-9H-purin-6-yl)piperazin-1-yl)but-2-en-1-one], the 50% growth inhibitory concentration (GI50) with TMD-8 cells was found to be 0.141 µM. This compound returned an IC50 at Btk of 3 nM.

In the case of `O=C(/C=C/CN1CCOCC1)N1CCN(c2ncnc3[nH]c(C#CCOc4ccccc4)nc23)CC1` [Example 8, (E)-4-morpholino-1-(4-(8-(3-phenoxyprop-1-yn-1-yl)-9H-purin-6-yl)piperazin-1-yl)but-2-en-1-one], the concentration for 50% growth inhibition (GI50) in the assay with TMD-8 cells came to 0.357 µM. This compound gave a half-maximal inhibitory concentration (IC50) against Btk of 332 nM.

On to `C=CC(=O)N1CCC(Nc2ncnc3[nH]c(C#CCOc4ccccc4)nc23)C1` (stereo not drawn) [Example 9, 1-(3-((8-(3-phenoxyprop-1-yn-1-yl)-9H-purin-6-yl)amino)pyrrolidin-1-yl)prop-2-en-1-one], for which the 50% growth inhibitory concentration (GI50) in the assay on TMD-8 cells amounted to 0.012 µM. In addition, half-maximal inhibition at Btk (IC50) required 2.6 nM.

Consider `CN(C)C/C=C/C(=O)N1CCC(Nc2ncnc3[nH]c(C#CCOc4ccccc4)nc23)C1` (stereo not drawn) [Example 10, (E)-4-(dimethylamino)-1-(3-((8-(3-phenoxyprop-1-yn-1-yl)-9H-purin-6-yl)amino)pyrrolidin-1-yl)but-2-en-1-one], for which the GI50 with TMD-8 cells worked out at 0.171 µM. This compound also displayed an IC50 against Btk of 0.1 nM.

`O=C(/C=C/CN1CCOCC1)N1CCC(Nc2ncnc3[nH]c(C#CCOc4ccccc4)nc23)C1` (stereo not drawn) [Example 11, (E)-4-morpholino-1-(3-((8-(3-phenoxyprop-1-yn-1-yl)-9H-purin-6-yl)amino)pyrrolidin-1-yl)but-2-en-1-one]: the concentration for 50% growth inhibition (GI50) with TMD-8 cells stood at 1.17 µM. Also, the IC50 against Btk was 60 nM.

In the case of `O=C(/C=C/CN1CCCC1)N1CCC(Nc2ncnc3[nH]c(C#CCOc4ccccc4)nc23)C1` (stereo not drawn) [Example 12, (E)-1-(3-((8-(3-phenoxyprop-1-yn-1-yl)-9H-purin-6-yl)amino)pyrrolidin-1-yl)-4-(pyrrolidin-1-yl)but-2-en-1-one], the 50% growth inhibitory concentration (GI50) in the assay with TMD-8 cells was found to be 1.3 µM. On Btk, this compound displayed a 50% inhibitory concentration (IC50) of 0.3 nM.

For the compound `C=CC(=O)N1CCC(Nc2ncnc3[nH]c(C#CCOc4cccc(Cl)c4)nc23)C1` (stereo not drawn) [Example 13, 1-(3-((8-(3-(3-chlorophenoxy)prop-1-yn-1-yl)-9H-purin-6-yl)amino)pyrrolidin-1-yl)prop-2-en-1-one], the 50% growth inhibitory concentration (GI50) in the assay on TMD-8 cells turned out to be 0.019 µM. This compound came in with an IC50 against Btk of 1.9 nM.

For the compound `C=CC(=O)N1CCC(Nc2ncnc3[nH]c(C#CCOc4ccc(F)c(F)c4)nc23)C1` (stereo not drawn) [Example 14, 1-(3-((8-(3-(3,4-difluorophenoxy)prop-1-yn-1-yl)-9H-purin-6-yl)amino)pyrrolidin-1-yl)prop-2-en-1-one], the GI50 with TMD-8 cells was determined as 0.134 µM. At Btk, this compound returned an IC50 of 15 nM.

For `C=CC(=O)N1CCC(Nc2ncnc3[nH]c(C#CCOc4cccc(F)c4)nc23)C1` (stereo not drawn) [Example 15, 1-(3-((8-(3-(3-fluorophenoxy)prop-1-yn-1-yl)-9H-purin-6-yl)amino)pyrrolidin-1-yl)prop-2-en-1-one], the concentration for 50% growth inhibition (GI50) in the assay on TMD-8 cells was 0.019 µM. For the same compound, on Btk, the midpoint of inhibition, the IC50, lay at 14.8 nM.

Regarding `C=CC(=O)N1CCC(Nc2ncnc3[nH]c(C#CCOc4ccccc4F)nc23)C1` (stereo not drawn) [Example 16, 1-(3-((8-(3-(2-fluorophenoxy)prop-1-yn-1-yl)-9H-purin-6-yl)amino)pyrrolidin-1-yl)prop-2-en-1-one], the concentration for 50% growth inhibition (GI50) in the assay on TMD-8 cells was determined as 0.003 µM. 0.6 nM corresponded to half-maximal inhibition on Btk (IC50).

With `C=CC(=O)N1CCC(Nc2ncnc3[nH]c(C#CCOc4cc(F)cc(F)c4)nc23)C1` (stereo not drawn) [Example 17, 1-(3-((8-(3-(3,5-difluorophenoxy)prop-1-yn-1-yl)-9H-purin-6-yl)amino)pyrrolidin-1-yl)prop-2-en-1-one], in the assay with TMD-8 cells, the GI50 is 0.25 µM. Moreover, the IC50 on Btk worked out at 212 nM.

Take `C=CC(=O)N1CCC(Nc2ncnc3[nH]c(C#CCOc4ccccc4Cl)nc23)C1` (stereo not drawn) [Example 18, 1-(3-((8-(3-(2-chlorophenoxy)prop-1-yn-1-yl)-9H-purin-6-yl)amino)pyrrolidin-1-yl)prop-2-en-1-one]: in the assay on TMD-8 cells, the GI50 was 0.002 µM. Also, half-maximal inhibition at Btk (IC50) required 0.02 nM.

With `C=CC(=O)N1CCC(Nc2ncnc3[nH]c(C#CCOc4ccc(Cl)cc4)nc23)C1` (stereo not drawn) [Example 19, 1-(3-((8-(3-(4-chlorophenoxy)prop-1-yn-1-yl)-9H-purin-6-yl)amino)pyrrolidin-1-yl)prop-2-en-1-one], the GI50 with TMD-8 cells came out at 0.148 µM. The concentration for half-maximal inhibition (IC50) on Btk turned out to be 22 nM.

Take `C=CC(=O)N1CCC(Nc2ncnc3[nH]c(C#CCOc4ccc(F)cc4)nc23)C1` (stereo not drawn) [Example 20, 1-(3-((8-(3-(4-fluorophenoxy)prop-1-yn-1-yl)-9H-purin-6-yl)amino)pyrrolidin-1-yl)prop-2-en-1-one]: the GI50 in the assay on TMD-8 cells was determined as 0.051 µM. This compound also came in with an IC50 on Btk of 0.5 nM.

For `CN(C)C/C=C/C(=O)N1CCC(Nc2ncnc3[nH]c(C#CCOc4ccc(Cl)cc4)nc23)C1` (stereo not drawn) [Example 21, (E)-1-(3-((8-(3-(4-chlorophenoxy)prop-1-yn-1-yl)-9H-purin-6-yl)amino)pyrrolidin-1-yl)-4-(dimethylamino)but-2-en-1-one], the GI50 in the assay with TMD-8 cells was 1.8 µM. Further, it took 4 nM to reach half-maximal inhibition against Btk (IC50).

Turning to `CN(C)C/C=C/C(=O)N1CCC(Nc2ncnc3[nH]c(C#CCOc4ccc(F)cc4)nc23)C1` (stereo not drawn) [Example 22, (E)-1-(3-((8-(3-(4-fluorophenoxy)prop-1-yn-1-yl)-9H-purin-6-yl)amino)pyrrolidin-1-yl)-4-(dimethylamino)but-2-en-1-one], the 50% growth inhibitory concentration (GI50) in the assay on TMD-8 cells stood at 1 µM. This compound also came in with a 50% inhibitory concentration (IC50) on Btk of 0.02 nM.

In the case of `CN(C)C/C=C/C(=O)N1CCC(Nc2ncnc3[nH]c(C#CCOc4ccccc4F)nc23)C1` (stereo not drawn) [Example 23, (E)-1-(3-((8-(3-(2-fluorophenoxy)prop-1-yn-1-yl)-9H-purin-6-yl)amino)pyrrolidin-1-yl)-4-(dimethylamino)but-2-en-1-one], the 50% growth inhibitory concentration (GI50) in the assay on TMD-8 cells was 0.107 µM. The same compound returned an IC50 against Btk of 1.5 nM.

As to `C=CC(=O)N1CCC(Nc2ncnc3[nH]c(C#CCOc4ccc(F)cc4F)nc23)C1` (stereo not drawn) [Example 24, 1-(3-((8-(3-(2,4-difluorophenoxy)prop-1-yn-1-yl)-9H-purin-6-yl)amino)pyrrolidin-1-yl)prop-2-en-1-one], the GI50 in the assay on TMD-8 cells is 0.01 µM. The compound also came in with a half-inhibitory concentration (IC50) against Btk of 1 nM.

In the case of `C=CC(=O)N1CCC(Nc2ncnc3[nH]c(C#CCOc4ccccc4OC)nc23)C1` (stereo not drawn) [Example 25, 1-(3-((8-(3-(2-methoxyphenoxy)prop-1-yn-1-yl)-9H-purin-6-yl)amino)pyrrolidin-1-yl)prop-2-en-1-one], the GI50 in the assay on TMD-8 cells amounted to 0.006 µM. Besides, at Btk, the IC50 was 1 nM.

On Btk, `O=C(/C=C/c1cccs1)N1CCC(Nc2ncnc3[nH]c(C#CCOc4ccccc4)cc23)C1` (stereo not drawn) [Example 37, (E)-1-(3-((6-(3-phenoxyprop-1-yn-1-yl)-7H-pyrrolo[2,3-d]pyrimidin-4-yl)amino)pyrrolidin-1-yl)-3-(thiophen-2-yl)prop-2-en-1-one] displayed an IC50 of 1180 nM.
